# Results from patent US20110123623A1, “RHAMNOLIPID MECHANISM” (priority 2009, published 2011).
# Values joined by “and” are separate entries in the source; they are usually repeats but may differ in a detail not shown here. Equal entries are not always repeated. Where two headings read alike, the source gives them in different places.
# What was measured:
# [1] = test system: female Swiss-Webster mice; assay type: in vivo; details: for MORTAL. / SIGNIFICANT FINDINGS: 7 days
# Description: Multi-dose toxicity study of Di-rhamnolipid W3CTS administered subcutaneously in female Swiss-Webster mice for 7 days recovery period. The effects of 7 daily subcutaneous injections of the 99.3% pure Di-rhamnolipid W3CTS, followed by 7-day recovery period, were determined in female Swiss-Webster mice. Five groups (3 mice per group) were administered W3CTS doses at 0.012; 1, 2; 60 and 120 mg/kg/day and vehicle. All animals were observed and weighed throughout the study for clinical signs of toxicity including skin injection sites. On study Day 13 (seven days after last injection, 6 days for group 5) all animals were euthanized. The thymus, liver, kidneys, spleen, heart and lungs were weighed and preserved.
# No mortality occurred at any dose level. […] Abnormal clinical observations at some animals at groups (60 and 120 mg/kg) were limited to skin lesions at the injection sites. All skin lesions were healing at termination.
# At necropsy, two animals from group 120 mg/kg had moderate enlargement of the spleen and liver and adhesions between liver, spleen, kidneys and peritoneum were seen also in one animal (See Table 1).
# Histopathology of spleen, thymus, and liver and selected skin site lesions was performed on tissues from high dose group animals and one control. […] Histopathologic features of skin lesions included evidence of chronic active inflammation, co-existing with progressing ulceration and/or healing.
# [2] = test system: psoriatic patients; test: Physician sponsored treatment of psoriatic patients (PASI); assay type: in vivo, human
# Description: Twelve psoriatic hospital bed patients, and one patient with seborrheic dermatitis and psoriasis, one patient with lichen planus and one with dermatitis cicumscripta unilocullaris as an out clinic patient were recruited as study volunteers.
# Abbreviations: PASI=Psoriasis Area Severity Index (Erythema, Infiltration and Scaling); PVP=Psoriasis Vulgaris in Placibus; d=days; m=months; y=years; ster=steroids (treated)
# [3] = in vivo; details: female, Swiss-Webster, mouse, iv
# Description: (§1) Maximum tolerated doses of di-rhamnolipid W3CTS were administered intravenously in female Swiss-Webster mice.
# (§2) Female Swiss-Webster mice obtained from the Houston, Tex. site Harlan Sprague Dawley, Inc were used in the study. All mice were divided into 6 groups. The vehicle and Di-rhamnolipid W3CTS were administered as an intravenous bolus, via tail vein, beginning with lowest dose level (75 mg/kg). […] In this study, the maximum tolerated dose of di-rhamnolipid W3CTS in female Swiss-Webster mice was 120 mg/kg. Three mice (LD50) of the next higher dose tested (135 /mg/kg) died immediately upon administration.
# [4] = test system: female Swiss-Webster mice; test: in vivo; details: mouse
# Description: as §1, §2
# [5] = test system: nude guinea pigs; test: DNCB induced delayed type hypersensitivity in nude guinea pigs; assay type: in vivo, guinea pig
# Description: The nude guinea pig is used as a test animal because of different animal skins; nude guinea pig skin is claimed to be the one closest resembling human skin.
# In DNCB sensitized guinea pigs delayed type hypersensitivity reactions were induced with patches soaked with 0.25% (w/v) DNCB in ethanol/propylene glycol kept on the animals back for 24 hours. The test sites were treated twice daily during 7 days with: Dovonex ointment ([…]), 1% Di-rhamnolipid W3CTS in Vaseline, vehicle and untreated area. […] Dovonex has been improved by time.
# [6] = test system: BALB/c male mice; test: Immunostimulation (humoral); assay type: in vivo, mouse
# Description: Immunostimulation (humoral) in BALB/c male mice and Immunosuppression (humoral)^(2,7) on ICR male mice were negative.
# [7] = test system: Guinea pig lung LTC4 synthetase; test: Leukotriene C4 synthetase inhibition (EIA); assay type: biochemical; details: highest concentration 1,000 μM/ml; DMSO 0.5%
# Description: Leukotriene C4 (LTC4) synthetase is involved in the formation of LTC4 from LTA4. Taken together with other assays for enzymes involved in the lipoxygenase pathway (e.g. 5-lipoxygenase, LTA4 hydrolase), a locus of action can be established for agents which inhibit the formation of leukotrienes. Guinea pig lung LTC4 synthetase was used. Test compound and/or vehicle was pre-incubated with 180 μg/ml enzyme in phosphate buffer pH 7.8 for 15 minutes at 37° C. The reaction is initiated by the addition of 2.5 μg/ml LTA4 methyl ester for another 30 minute incubation period and terminated by further addition of ice-cold methanol. Determination of the amount of LTC4 formed is read spectrophotometrically by enzyme immunoassay kit (EIA). W3CTS was screened at 1,000; 100; 10; and 1 μM/ml. Solvent was DMSO 0.5%. Sulfazine was used as a reference. Inhibition was 81% at the highest concentration of 1,000 μM/ml.
# [8] = test system: female ICR mice; test: Immunosuppression (cellular): oxazolone-induced delayed type hypersensitivity; assay type: in vivo, mouse; details: oxazolone-induced DTH
# Description: Immunosuppression (cellular): Oxazolone-induced delayed type hypersensitivity of female ICR mice was negative.
# [9] = test system: T-lymphocyte cells isolated from thymus of balb/c mice; test: Mouse T-cell proliferation (thymidine incorporation); assay type: cell-based
# Description: (§3) T-lymphocyte cells isolated from thymus of balb/c mice weighing 17±1 g were used. Test compound and/or vehicle was incubated with the cells (4×10^6/ml) in the presence of 3 μg/ml concanavalin A (Con A) overnight. Thymidine incorporation was assessed by liquid scintillation counting. B-lymphocyte cells isolated from the spleen of balb/c mice weighing 17±1 g were used. Test compound and/or vehicle was incubated with the cells (1.5×10^6/ml) in the presence of 10 μg/ml lipopolysaccharide (LPS) in AIM-V medium pH 7.4 at 37° C., during 24 hours. [^3H]Thymidine (120 nM) was then added for an additional overnight incubation period. Thymidine incorporation was assessed by liquid scintillation counting. […] T-cells isolated from mouse thymus were inhibited at the concentration of 10 μM by 24% and in the presence of concanavalin T-cells proliferation was inhibited 43%.
# [10] = test system: B-lymphocyte cells isolated from the spleen of balb/c mice; test: Mouse B-cell proliferation (thymidine incorporation); assay type: cell-based
# Description: as §3
smiles,measurement,setting,value
CCCCCCCC(CC(=O)O)OC(=O)CC(CCCCCCC)OC1OC(C)C(O)C(O)C1OC1OC(C)C(O)C(O)C1O (stereo not drawn) [Di-rhamnolipid W3CTS],MORTAL.,[1]; 0.012 mg/kg/day s.c.,0/3
same,SIGNIFICANT FINDINGS,[1]; 0.012 mg/kg/day s.c.,None
same,MORTAL.,[1]; 1.20 mg/kg/day s.c.,0/3
same,SIGNIFICANT FINDINGS,[1]; 1.20 mg/kg/day s.c.,None
same,MORTAL.,[1]; 60 mg/kg/day s.c.,0/3
same,Histopathology: extramedullary hematopoiesis (mice),[1]; 120 mg/kg/day s.c.,"mouse, extramedullary hematopoiesis in 2"
same,Histopathology: thymic involution (mice),[1]; 120 mg/kg/day s.c.,Histopathology: thymic involution in 1
same,"Necroscopy findings: adhesions between the liver and the spleen, kidneys and peritoneum (mice)",[1]; 120 mg/kg/day s.c.,"spleen, kidneys and peritoneum (1/3"
same,MORTAL.,[1]; 120 mg/kg/day s.c.,0/3
same,Psoriasis Area Severity Index After Treatment W3CTS,"[2]; 1.0% eucerin ointment, 15-40 treating days, one patient per line",0.2 (5×) and 0.3 and 0.4 and 6 and 0.6 (2×) and 1.6 and 0.9
same,Psoriasis Area Severity Index Extended Evaluation W3CTS,"[2]; 1 y (year), one patient per line",1 y = 0
same,Psoriasis Area Severity Index Extended Evaluation W3CTS,"[2]; 3 m (months), one patient per line",3 m = 0 (2×) and 3 m relapse and 3 m = 0.1
same,Psoriasis Area Severity Index Before Treatment W3CTS,"[2]; baseline of W3CTS treated lesions, one patient per line",9.6 (2×) and 8.1 (3×) and 10.8 (4×) and 14.4 and 5.4 and 8.4
same,duration free of psoriatic lesions,[2]; some of the patients,free of psoriatic lesions up to seven years
same,LD50 at 14 day,[3],135 mg/kg
same,MTD at 14 day,[3],120 mg/kg
same,gross abnormalities at necropsy,[4],no gross abnormalities
same,"tail finding, higher dose groups",[4],scabbing and necrosis of tails
same,anti-inflammatory effect in the model,"[5]; 1% in Vaseline, preliminary data",very strong anti-inflammatory effect
same,state of test areas by day 7,"[5]; treated twice daily during 7 days, W3CTS 1% in Vaseline",healed
same,Immunostimulation (humoral),[6],negative
same,Inhibition of LTC4 synthetase,[7],81%
same,Immunosuppression (cellular),[8],negative
same,inhibition at 10 µM,"[9]; in the presence of concanavalin, read-out: inhibition of T-cells proliferation",43%
same,inhibition at 10 µM,"[9]; without concanavalin, read-out: inhibition of T-cells",24%
same,effect on B-cell proliferation,"[10]; 10 μM in 0.5% DMSO, without LPS",did not have any effect
same,inhibition at 10 µM,"[10]; Mus musculus, B-cell, 10 μM, in the presence of LPS",≤ 54%
